According to patent publication US20090221559A1 (priority 2005, published 2009):
pEC50, pIC50: −log10 of the molar value. Read-outs that look alike come from different tables or passages of the source.

Experiments:
[1] = target: T1, HCV NS5B polymerase (His-tagged, C-terminal 21 amino acid deleted NS5B, HC-J4) (Hepatitis C virus genotype 1b, UniProt O92972); experiment: NS5b polymerase assay (biochemical RdRp assay, 3H-GTP incorporation, SPA beads); parameters: species or system HCV genotype 1b; details: 3H-GTP incorporation, 2 h at 25° C.
T1 construct: The cDNA encoding NS5B amino acid 1-570 (HC-J4, genotype 1b); His tag (His6, from pET-21b) (C); made in house; host or cells: E. coli BL21 (DE3)
T1 sequence (O92972 2417-3000, looked up, stated change not applied): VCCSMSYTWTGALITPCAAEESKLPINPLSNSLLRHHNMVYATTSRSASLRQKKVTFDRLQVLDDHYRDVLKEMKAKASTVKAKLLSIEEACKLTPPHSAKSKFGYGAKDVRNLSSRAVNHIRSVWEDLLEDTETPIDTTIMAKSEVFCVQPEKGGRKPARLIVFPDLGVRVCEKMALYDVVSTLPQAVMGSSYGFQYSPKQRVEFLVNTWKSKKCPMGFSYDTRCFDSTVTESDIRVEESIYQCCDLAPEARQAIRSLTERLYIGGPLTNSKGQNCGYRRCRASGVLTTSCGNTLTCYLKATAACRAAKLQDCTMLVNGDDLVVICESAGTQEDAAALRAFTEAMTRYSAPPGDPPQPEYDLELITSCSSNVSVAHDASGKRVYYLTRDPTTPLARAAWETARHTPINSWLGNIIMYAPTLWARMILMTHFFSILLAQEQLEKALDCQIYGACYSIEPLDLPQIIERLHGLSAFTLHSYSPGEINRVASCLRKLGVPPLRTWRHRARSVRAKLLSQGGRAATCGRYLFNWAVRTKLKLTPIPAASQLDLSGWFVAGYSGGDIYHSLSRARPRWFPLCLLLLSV
In short: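 3H-GTP incorporation into newly made RNA was captured on SPA beads added in EDTA after 2 h at 25 °C. Compounds in DMSO met preformed enzyme–template complex (200 nM truncated His-NS5B, HC-J4 1b; biotin-oligo(rG13)/poly(rC)) for 15 min at RT, then 600 nM GTP, 5 mM MgCl2, Tris pH 7.5 started polymerization.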

[2] = test system: HCV replicon RNA replication in Huh-7 luc/neo (Huh-Luc) cells; experiment: HCV replicon assay (stable replicon cell reporter assay, luciferase read-out); format: cell-based, HCV type 1b
In short: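 Three-day compound exposure used Huh-Luc cells, which harbour an autonomously replicating genotype 1b NS3-NS5B replicon expressing luciferase and neo^R. Luciferase signal served as the replication read-out, and dose-response curves came from several concentrations per compound.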

[3] = NS5B Polymerase Assay IC50, 200 nM enzyme
[4] = Hepatitis C virus, Huh-7, 72 h, read-out: Replicon Assay EC50, Huh-Luc cells, three days incubation, luciferase activity
[5] = read-out: Replicon Assay EC50, Huh-Luc cells, three days incubation, luciferase activity
[6] = 200 nM enzyme, read-out: NS5B Polymerase Assay IC50
[7] = Huh-Luc cells, three days incubation, luciferase activity, read-out: Replicon Assay EC50

Compound	pIC50 [1, 3]	pEC50 [2, 4]	pEC50 [2, 5]	pIC50 [1, 6]	pEC50 [2, 7]
COc1c(Cl)cc(Cl)cc1C1C2=C(CC(C)(C)CC2=O)Nc2ccccc2N1C(=O)Cc1ccccc1 (centres unmarked) [compound 15]	< 4.37	5.51			
CC1(C)CC(=O)C2=C(C1)Nc1ccccc1N(C(=O)Cc1ccccc1)C2c1c(Cl)cccc1Cl (centres unmarked) [compound 16]	< 4.37	4.98			
CCCCC(=O)N1c2ccccc2NC2=C(C(=O)CC(C)(C)C2)C1c1ccc(Cl)cc1Cl (centres unmarked) [compound 17]	< 4.37	5.18			
CC(=O)N1c2ccccc2NC2=C(C(=O)CC(C)(C)C2)C1c1ccccc1OCc1ccccc1 (centres unmarked) [compound 19]	< 4.37		< 4.49		
CC1(C)CC(=O)C2=C(C1)Nc1ccccc1N(C(=O)Cc1ccccc1)C2c1ccc(Cl)cc1 (centres unmarked) [compound 20]	< 4.37	5.18			
COc1ccc(C2C3=C(CC(C)(C)CC3=O)Nc3ccccc3N2C(=O)CSc2nc3ccccc3s2)cc1 (centres unmarked) [compound 21]	< 4.37	4.85			
COc1ccc(OC)c(C2C3=C(CC(C)(C)CC3=O)Nc3ccccc3N2C(=O)Cc2ccccc2)c1 (centres unmarked) [compound 22]	< 4.37	4.97			
CC(C)C(=O)N1c2ccccc2NC2=C(C(=O)CC(C)(C)C2)C1c1ccccc1F (centres unmarked) [compound 23]	< 4.37	4.69			
CC(=O)N1c2ccccc2NC2=C(C(=O)CC(C)(C)C2)C1c1c(F)cccc1Cl (centres unmarked) [compound 24]	< 4.37	4.89			
CC1(C)CC(=O)C2=C(C1)Nc1ccccc1N(C(=O)C(F)(F)F)C2c1cccc(Cl)c1Cl (centres unmarked) [compound 25]	< 4.37	4.61			
CC1(C)CC(=O)C2=C(C1)Nc1ccccc1N(C(=O)c1ccccc1F)C2c1ccccc1OCc1ccccc1 (centres unmarked) [compound 27]	< 4.37	4.68			
CC(C)C(=O)N1c2ccccc2NC2=C(C(=O)CC(C)(C)C2)C1c1ccc(Cl)cc1Cl (centres unmarked) [compound 28]	< 4.37	5.26			
CC(=O)N1c2ccccc2NC2=C(C(=O)CC(C)(C)C2)C1c1cccc(Cl)c1Cl (centres unmarked) [compound 29]	< 4.37	5.17			
COc1ccc(C2C3=C(CC(C)(C)CC3=O)Nc3ccccc3N2C(=O)CC(C)C)c(OC)c1 (centres unmarked) [compound 30]	< 4.37	4.64			
CC1(C)CC(=O)C2=C(C1)Nc1ccccc1N(C(=O)Cc1ccccc1)C2c1cccc(Cl)c1 (centres unmarked) [compound 31]	< 4.37	5.20			
COc1ccc(C2C3=C(CC(C)(C)CC3=O)Nc3ccccc3N2C(=O)c2ccc(F)cc2)cc1 (centres unmarked) [compound 33]	< 4.37	4.61			
COc1cccc(C2C3=C(CC(C)(C)CC3=O)Nc3ccccc3N2C(=O)Cc2ccc(Cl)cc2)c1 (centres unmarked) [compound 34]	< 4.37	5.17			
CC1(C)CC(=O)C2=C(C1)Nc1ccccc1N(C(=O)c1ccccc1)C2c1c(F)cccc1Cl (centres unmarked) [compound 37]	< 4.37	5.16			
CC1(C)CC(=O)C2=C(C1)Nc1ccccc1N(C(=O)Cc1ccccc1)C2c1cccc(O)c1 (centres unmarked) [compound 39]	< 4.37	5.13			
CCC(=O)N1c2ccccc2NC2=C(C(=O)CC(C)(C)C2)C1c1cccc(Cl)c1Cl (centres unmarked) [compound 40]	< 4.37	< 4.61			
COc1ccc(C2C3=C(CC(C)(C)CC3=O)Nc3ccccc3N2C(=O)CC(C)C)cc1 (centres unmarked) [compound 41]	< 4.37	5.07			
CC(=O)N1c2ccccc2NC2=C(C(=O)CC(C)(C)C2)C1c1ccc(OCc2ccccc2)cc1 (centres unmarked) [compound 42]				5.25	5.19
CC(C)CC(=O)N1c2ccccc2NC2=C(C(=O)CC(C)(C)C2)C1c1c(F)cccc1Cl (centres unmarked) [compound 43]	< 4.37	5.04			
CC(=O)N1c2ccccc2NC2=C(C(=O)CC(C)(C)C2)C1c1ccccc1OCc1ccccc1 (centres unmarked) [compound 44]	< 4.37		5.02		
CCC(=O)N1c2ccccc2NC2=C(C(=O)CC(C)(C)C2)C1c1c(Cl)cccc1Cl (centres unmarked) [compound 46]	< 4.37	4.95			

Compound	pIC50 [1, 3]	pEC50 [2, 4]	pEC50 [2, 5]	pIC50 [1, 6]	pEC50 [2, 7]
CC1(C)CC(=O)C2=C(C1)Nc1ccccc1N(C(=O)C(F)(F)F)C2c1cccc([N+](=O)[O-])c1 (centres unmarked) [compound 47]	< 4.37	4.79			
COc1ccc(C2C3=C(CC(C)(C)CC3=O)Nc3ccccc3N2C(C)=O)cc1OCc1ccccc1 (centres unmarked) [compound 48]				4.80	4.78
CCC(=O)N1c2ccccc2NC2=C(C(=O)CC(C)(C)C2)C1c1ccc(F)cc1 (centres unmarked) [compound 49]	< 4.37	4.95			
CC(=O)N1c2ccccc2NC2=C(C(=O)CC(C)(C)C2)C1c1c(Cl)cccc1Cl (centres unmarked) [compound 50]	< 4.37	< 4.49			
CC1(C)CC(=O)C2=C(C1)Nc1ccccc1N(C(=O)C(F)(F)F)C2c1ccc(OCc2ccccc2)cc1 (centres unmarked) [compound 52]	< 4.37	5.13			
CC1(C)CC(=O)C2=C(C1)Nc1ccccc1N(C(=O)C1CC1)C2c1ccc(Cl)cc1Cl (centres unmarked) [compound 53]	4.71	< 4.49			
CCC(=O)N1c2ccccc2NC2=C(C(=O)CC(C)(C)C2)C1c1ccc(Cl)cc1 (centres unmarked) [compound 54]	< 4.37	4.65			
CCC(=O)N1c2ccccc2NC2=C(C(=O)CC(C)(C)C2)C1c1ccc(C(F)(F)F)cc1 (centres unmarked) [compound 55]	4.48	< 4.49			
CC1(C)CC(=O)C2=C(C1)Nc1ccccc1N(C(=O)C(F)(F)F)C2c1ccc(Cl)cc1 (centres unmarked) [compound 56]	< 4.37	4.60			
CCOc1ccc(C2C3=C(CC(C)(C)CC3=O)Nc3ccccc3N2C(C)=O)cc1 (centres unmarked) [compound 57]	< 4.37	5.35			
COc1ccc(C2C3=C(CC(C)(C)CC3=O)Nc3ccccc3N2C(=O)C(F)(F)F)c(OC)c1 (centres unmarked) [compound 58]	< 4.37	5.06			
COc1ccc(C2C3=C(CC(C)(C)CC3=O)Nc3ccccc3N2C(C)=O)cc1COc1ccc(F)cc1 (centres unmarked) [compound 59]	< 4.37	5.24			
CCC(=O)N1c2ccccc2NC2=C(C(=O)CC(C)(C)C2)C1c1cc(OC)ccc1OC (centres unmarked) [compound 60]	< 4.37	4.75			
CCC(=O)N1c2ccccc2NC2=C(C(=O)CC(C)(C)C2)C1c1ccccc1OC(C)CC (centres unmarked) [compound 61]	< 4.37	5.02			
COc1c(Cl)cc(Cl)cc1C1C2=C(CC(C)(C)CC2=O)Nc2ccccc2N1C(=O)C(C)C (centres unmarked) [compound 62]	< 4.37	4.65			
CCCOc1ccccc1C1C2=C(CC(C)(C)CC2=O)Nc2ccccc2N1C(=O)CC (centres unmarked) [compound 63]	< 4.37	5.30			
CCOc1cc(C2C3=C(CC(C)(C)CC3=O)Nc3ccccc3N2C(=O)c2ccccc2)ccc1O (centres unmarked) [compound 64]	< 4.37	4.64			
CCC(C)Oc1ccccc1C1C2=C(CC(C)(C)CC2=O)Nc2ccccc2N1C(=O)C(F)(F)F (centres unmarked) [compound 65]	< 4.37	5.61			
CCCCC(=O)N1c2ccccc2NC2=C(C(=O)CC(C)(C)C2)C1c1ccccc1Cl (centres unmarked) [compound 66]	< 4.37	4.64			
CCCCCOc1ccc(C2C3=C(CC(C)(C)CC3=O)Nc3ccccc3N2C(=O)c2ccccc2F)cc1 (centres unmarked) [compound 67]	< 4.37	5.25			
COc1ccc(C2C3=C(CC(C)(C)CC3=O)Nc3ccccc3N2C(=O)c2ccc(Cl)cc2)cc1OC (centres unmarked) [compound 68]	< 4.37	4.64			
CC1(C)CC(=O)C2=C(C1)Nc1ccccc1N(C(=O)Cc1ccccc1)C2c1c(F)cccc1Cl (centres unmarked) [compound 69]	< 4.37	5.34			
CC1(C)CC(=O)C2=C(C1)Nc1ccccc1N(C(=O)c1ccccc1)C2c1ccccc1Cl (centres unmarked) [compound 70]	< 4.37	4.83			
COc1ccc(OC)c(C2C3=C(CC(C)(C)CC3=O)Nc3ccccc3N2C(=O)c2ccccc2)c1 (centres unmarked) [compound 72]	< 4.37	4.63			
